Experiment [1] concerns HUCCT (cholangiocarcinoma). The experiment in a line: Cholangiocarcinoma implantation in immunodeficient NOD-SCID mice. In kind it is in vivo. The following applies: for tumour size: after 50 days, compared with control, chloroquine 25 mg/kg in water supply (p<0.001), IRS 954 50 μl i.p. once weekly (p<0.01). As to the method: 12 NOD-SCID mice were injected intrahepatically with 5×10^6 cells of HUCCT (cholangiocarcinoma). […] After 50 days a mass was found subcutaneously.

The test system of experiment [2] is HuH7 hepatocellular carcinoma cell line. The experiment in a line: Cell proliferation in culture (cell counting, Promega proliferation assay), HuH7. In kind it is cell-based. Particulars: FIG. 13A, HuH7, in the presence of cpg. The source says: Using different techniques, manual cell counting, nucleo-counter machine and Promega proliferation assay. Using 10^4 […] 96 wells plate treat some of them with cpg (TLR9 stimulator; […] In Huh7, HepG2 and HUCCT

Another experiment deals with Hepatocellular carcinoma. The experiment in a line: Chloroquine in a rodent model of HCC (DEN and NMOR). The format is in vivo, fisher rats. Particulars: for animals that developed evidence of hepatocellular carcinoma: Chloroquine 25 mg/kg/day with DEN and NMOR, weeks 8, 10 and 12 pooled. As to the method: 40 five weeks old male fisher rats were studied. They were divided into 2 groups, Group 1 contained 15 rats who were taking DEN and NMOR alone. […] The rats have been given 100 mg/kg DEN (Diethylnitrosamine) (sigma) once intraperitoneal. Nitosomorpholine (NMOR) was been supplied in water with concentration of 80 ppm.
Liver and blood were collected from the animals after 8, 10 and 12 weeks respectively. […] (Table 2)

In another experiment the test system is HCC. The experiment in a line: Animal model for HCC: DEN and NMOR treated Fisher rats plus norfloxacin. The format is in vivo, Fisher rat. Particulars: for fibrosis grade: DEN + NMOR + norfloxacin 20 mg/kg per day by gavage, 14 weeks treatment, end at 16th week. How it is done:
We chose a Fisher Rat to be our model. We started with 18 Fisher rats, which were 5 weeks old on the beginning of the experiment. We divided them into 3 groups. They were acclimatised for one week before the experiment at room temperature […] and humidity 60%-65%. The first group used 6 Fisher rats as an HCC model. On the day we started we weighed them and determined the exact dose for each rat.
We started with a single dose of DEN (Diethylnitrosamine™, sigma) using 100 mg/kg as single intraperitoneal injection. Then we put NMOR (Nitrosomorpholine™, Sigma) in the concentration of 80 ppm in the water for 14 weeks. The second group, another 6 Fisher rats, got the same HCC model treatment (DEN and NMOR) plus we gavaged them with norfloxacin in the dose of 20 mg/kg per day. The third group, at the same time, was 6 rats with a control of just plain water. We weighed them every other day and stopped treatment on the 14th week, then left them for two more weeks until the 16th week. We noticed the two groups who took the DEN and NMOR didn't increase in weight at the same rate as the control.
When we started our experiment the rats average weights were 212-241 g in the 1st group, 225-260 g and 221-249 g in the 2nd and 3rd groups respectively. At the end of experiment for the groups that took the carcinogenecic treatment average weights were 328-353 g and 330-372 g respectively. For the control group the average weight was 430-478 g. […] Control group: Smooth bright outer surface of the liver.

Entries after “also recorded” stand apart in the source; their conditions may differ.

In the case of `CCN(CC)CCCC(C)Nc1ccnc2cc(Cl)ccc12` (centres unmarked) [Chloroquine], the “size of the nodules” value in experiment [1] (FIG. 11B, compared with controls) was “significantly smaller”. For the same compound, the tumour size result in experiment [1] is reported as “significant reduction”; in experiment [1] (listed as chloroquine), “significantly less”. Besides, the “inhibition of cpg associated proliferation” value in experiment [2] was “significantly inhibited”. In addition, the “animals that developed evidence of hepatocellular carcinoma” value in the experiment on Hepatocellular carcinoma (untreated group 8/9, p<0.0001) is reported as 1/10; with Hepatocellular carcinoma (untreated group 89%), 10%. Moreover, the “microscopic and macroscopic appearance of hepatocellular carcinoma” value in the experiment on Hepatocellular carcinoma (FIG. 10, DEN and NMOR group administered chloroquine) was “not seen; also recorded: no cancer was apparent either microscopically or macroscopically”. Also, the “HCC in Chloroquine treated” value is 1/4 in the experiment on Hepatocellular carcinoma (Week 8th, DEN & NMOR alone 2/3); 0/3 with Hepatocellular carcinoma (Week 10th, DEN & NMOR alone 3/3); 0/3 with Hepatocellular carcinoma (Week 12th, DEN & NMOR alone 3/3).
Take `CCn1cc(C(=O)O)c(=O)c2cc(F)c(N3CCNCC3)cc21` [norfloxacin]: the fibrosis grade is listed as 0-2 in the experiment on HCC and “minimal fibrosis” in the experiment on HCC (listed as Norfloxacin). The “HCC development / tumour grade” value in the experiment with HCC (DEN + NMOR + norfloxacin group (2nd group)) is “developed well-differentiated HCC except one”. In addition, the liver nodules result in the experiment on HCC (DEN, NMOR and Norfloxacin group versus DEN and NMOR group) is “less nodules than the first group”.

The record behind these values is patent publication US20130315940A1, “TREATMENT OF LIVER CANCER” (priority 2010, published 2013).
